In patent US7666685B2, “Screening method for identification of compounds suitable for treatment of oral cavity malodor associated with consumption of garlic” (Wm. Wrigley Jr. Company, priority 2005, dated 2010):
Where “and” joins values, the source holds several entries; their conditions need not be identical. Equal values may be shown once.

Experiments:
[1] = In vitro dose response: SPME GC/MS headspace analysis of raw macerated garlic solution treated with active; conditions: for GC/MS Peak Area (diallyl disulfide headspace): individual runs; for GC/MS Peak Area (diallyl disulfide headspace), Mean: mean of 3 runs; for reduction of diallyl disulfide headspace concentration: vs control garlic solution
Protocol: A model solution containing raw chopped garlic (20 g) dispersed in water (200 ml) was prepared by blending in a Waring commercial blender (Waring Commercial, Torrington, Conn.) at low power for 30 seconds and at high power for 30 seconds. The resulting solution was homogeneous with no visible garlic particles present.
A portion of the raw, macerated garlic solution (5 g) was treated with different levels of potential ameliorating actives and the headspace was extracted and analyzed (as described in greater detail below) to determine the effect of the potential actives on the headspace concentration of compounds contributing to oral cavity malodor associated with consumption of garlic.
Headspace of a vessel containing a portion of the garlic solution (5 ml) treated with a potential active was extracted for 60 minutes utilizing solid phase microextraction (SPME) with a 75 μm Carboxen-polydimethyl siloxane fiber (Supelco, Bellefonte, Pa.).
The SPME fiber assembly was injected into an Agilent 6890 gas chromatograph (GC)/mass spectrometer (MS) modified for multidimensional analyses and equipped with a sniff port and Aroma Trax software (Microanalytics, Round Rock, Tex.). Fibers remained in the GC injection port for five minutes following injection.
The GC/MS operating parameters included a He carrier gas flow rate of 6.5 ml/min, split mode (2:1) and the injector set at 250° C. Column 1 was 12 meter, 0.53 mm I.D. with a methyl silica stationary phase. Column 2 was a 25 meter, 0.53 mm DB-5 capillary column. The oven was programmed to hold at 40° C. for 3 minutes and to heat to 220° C. at a rate of 7° C./min and hold at 220° C. for 20 minutes. The MS operated in Electron Impact Mode (E.I.) at 70 eV.
A model solution containing raw chopped garlic dispersed in water was prepared as described in Example 1. […] For comparison purposes, the diallyl disulfide content of the headspace of a control model solution (i.e., no menthone added) was also analyzed.

[2] = Sensory analysis: ten panelists rate the odor intensity of the raw macerated garlic solution with added active; conditions: for Odor Intensity (0–100): individual panelists, 0=no odor, 100=very strong odor; for Odor Intensity (0–100), Mean: mean of N = 10 panelists
Protocol: Sensory analysis of the solutions utilized for analytical analyses of the raw garlic described above was conducted by ten panelists who evaluated the odor intensity of the model solution (raw macerated garlic) with and without the different levels of added active. Odor intensity was assessed utilizing a 0-100 point scale ballot with 0=no odor and 100=very strong odor.

With `CC(C)[C@@H]1CC[C@@H](C)CC1=O` [menthone] the “GC/MS Peak Area (diallyl disulfide headspace)” value ([1]; 0.3 mg/g garlic solution) was 46610414 and 58241626 and 60764744, the “GC/MS Peak Area (diallyl disulfide headspace), Mean” value (“GC/MS Peak Area … Mean” for short) ([1]; 0.3 mg/g garlic solution) was 55205595 and the “GC/MS Peak Area (diallyl disulfide headspace)” value ([1]; 1 mg/g garlic solution) was 20835556 and 16829160 and 16827232. The “GC/MS Peak Area … Mean” value ([1]; 1 mg/g garlic solution) was 18163983, the “GC/MS Peak Area (diallyl disulfide headspace)” value ([1]; 3 mg/g garlic solution) was 6746448 and 4757863 and 5868573 and the “GC/MS Peak Area … Mean” value ([1]; 3 mg/g garlic solution) was 5790961.3. For the same compound, the “less diallyl disulfide in headspace than control model solution” value ([1]; Example 3: 1.63 mg in 2.5 g model solution, at each headspace analysis interval (5 hour intervals)) was “at least 50%”, the “Odor Intensity (0–100)” value ([2]; 0.33 mg/g) was 1 (2×) and 6 and 7 (4×) and 5 and 8 and 3 and the “Odor Intensity (0–100), Mean” value ([2]; 0.33 mg/g) was 5.2. The “Odor Intensity (0–100)” value ([2]; 1 mg/g) was 1 and 2 (6×) and 4 (2×) and 6, the “Odor Intensity (0–100), Mean” value ([2]; 1 mg/g) was 2.7 and the “Odor Intensity (0–100)” value ([2]; 3 mg/g) was 2 (2×) and 0 (2×) and 4 (2×) and 3 (2×) and 1 (2×). For the same compound, the “Odor Intensity (0–100), Mean” value ([2]; 3 mg/g) was 2, the “reduction of odor of raw macerated garlic in water (sensory)” value ([2]; active concentration 0.3 mg/g) was 48% and the “reduction of odor of raw macerated garlic in water (sensory)” value ([2]; active concentration 3 mg/g) was 80%.

With caryophyllene the “GC/MS Peak Area (diallyl disulfide headspace)” value ([1]; 0.1 mg/g garlic solution) was 52155883 and 49803124 and 56316479, the “GC/MS Peak Area … Mean” value ([1]; 0.1 mg/g garlic solution) was 52758495 and the “GC/MS Peak Area (diallyl disulfide headspace)” value ([1]; 0.24 mg/g garlic solution) was 67591321 and 69400527 and 61729644. The “GC/MS Peak Area … Mean” value ([1]; 0.24 mg/g garlic solution) was 66240497, the “GC/MS Peak Area (diallyl disulfide headspace)” value ([1]; 0.4 mg/g garlic solution) was 93422075 and 91167385 and 94368797 and the “GC/MS Peak Area … Mean” value ([1]; 0.4 mg/g garlic solution) was 92986086. For the same compound, the “reduction of diallyl disulfide headspace concentration” value ([1]; active concentration 0.1 mg/g) was 34%, the “reduction of diallyl disulfide headspace concentration” value ([1]; active concentration 0.4 mg/g) was 63% and the “Odor Intensity (0–100)” value ([2]; 0.1 mg/g) was 5 (3×) and 6 (2×) and 2 and 4 (3×) and 7. For the same compound, the “Odor Intensity (0–100), Mean” value ([2]; 0.1 mg/g) was 4.8, the “Odor Intensity (0–100)” value ([2]; 0.2 mg/g) was 4 (2×) and 5 (3×) and 9 (2×) and 8 and 3 (2×) and the “Odor Intensity (0–100), Mean” value ([2]; 0.2 mg/g) was 5.5. The “Odor Intensity (0–100)” value ([2]; 0.4 mg/g) was 2 and 5 and 3 (3×) and 4 (3×) and 0 and 1, the “Odor Intensity (0–100), Mean” value ([2]; 0.4 mg/g) was 2.9 and the “decrease of odor intensity (sensory)” value ([2]; active concentration 0.1 mg/g) was 52%. For the same compound, the “decrease of odor intensity (sensory)” value ([2]; active concentration 0.4 mg/g) was 71%.
